We go through 13 compounds from ChEMBL document CHEMBL1201862, “PubChem BioAssay data set” (2004).

The structures appear in SMILES notation.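 All cell lines were grown in 96-well plates and treated with compound for 48 hours. Here, GI50 denotes the concentration required for 50% inhibition of growth.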 The source made the active and inactive calls. No stated cut-off is given here; in the data, active = GI50 up to about 1.1 µM and inactive = higher.

Common to all, as to assay: NCI-60 cell line screen, 48 h
The subject of assay [1] is SF-295.
Assay [2] deals with DU-145.
In assay [3] the test system is PC-3.
In assay [4] the test system is SN12C.
In assay [5] the test system is A549.
The subject of assay [6] is A498.
For assay [7], the system named is K562.
For assay [8], the system named is SK-MEL-2.
The subject of assay [9] is U-251.
The test system of assay [10] is OVCAR-5.
Assay [11] has as its system UO-31.
In assay [12] the test system is IGROV-1.
Assay [13] has as its system M14.
Assay [14] has as its system SF-268.
The subject of assay [15] is TK-10.
Assay [16] concerns SK-OV-3.
Assay [17] concerns HCC 2998.
The test system of assay [18] is HL-60.

As for `CCc1ncc(CO)n1Cc1cccc2ccccc12`, the GI50 in assay [1] is 53.1 µM (inactive); in assay [2], > 100 µM (inactive); in assay [3], > 100 µM (inactive); in assay [4], > 100 µM (inactive); in assay [5], > 100 µM (inactive); in assay [6], > 100 µM (inactive). Further, the GI50 in assay [7], in assay [8], in assay [9], in [10], in [11] and in assay [12] was > 100 µM (inactive) in each case. Moreover, the GI50 in assay [13] was > 100 µM (inactive); in [14], > 100 µM (inactive); in assay [15], 99.5 µM (inactive); in assay [16] it was > 100 µM (inactive).

Consider `CN(CCN)[C@H](CSSC[C@@H](c1ccccc1O)N(C)CCN)c1ccccc1O`, for which the GI50 in assay [1] was 6.85 µM (inactive); in [2], 14.8 µM (inactive); in assay [3], 11.7 µM (inactive); in assay [4], 9.48 µM (inactive); in assay [5] it was 7.24 µM (inactive); in assay [6], 20.2 µM (inactive). The GI50 in assay [17] is 12 µM (inactive); in assay [7], 7.18 µM (inactive); in assay [8], 14.6 µM (inactive); in assay [9] it was 15.9 µM (inactive); in assay [10], 13.9 µM (inactive); in assay [11], 10.1 µM (inactive). Moreover, the GI50 in assay [13] was 13.5 µM (inactive); in assay [14], 12.4 µM (inactive); in assay [15], 13.9 µM (inactive); in assay [16] it was 11.7 µM (inactive).

Regarding `CN(C)c1ccc(/N=N\c2cccc3ncccc23)cc1`, the GI50 in assay [1] was > 78 µM (inactive); in assay [18], 12.8 µM (inactive); in assay [2], 75.7 µM (inactive); in assay [3], 42.6 µM (inactive); in assay [4], 99.8 µM (inactive); in assay [5], 63.7 µM (inactive). Also, the GI50 in assay [17] is 0.302 µM (active); in assay [7], 35.4 µM (inactive); in assay [8], > 100 µM (inactive); in [9], > 74.1 µM (inactive); in assay [11], 8.53 µM (inactive); in assay [12], < 0.0159 µM (active). For the same compound, the GI50 in assay [13] was 61.7 µM (inactive); in assay [14] it was > 94 µM (inactive); in assay [15] it was 0.0425 µM (active); in [16], > 100 µM (inactive).

With `CCOC(=O)C1=C(C)NC(C)=C(C(=O)OCC)C1c1ccc(C)cc1`, the GI50 in assay [1] was 27.4 µM (inactive); in assay [2] it was 71.9 µM (inactive); in [3] it was 24.5 µM (inactive); in assay [4] it was 22.1 µM (inactive); in [5], 47.2 µM (inactive); in [6], 40.6 µM (inactive). Moreover, the GI50 was 73.6 µM (inactive) in assay [17]; 31 µM (inactive) in assay [7]; 39.8 µM (inactive) in assay [8]; 46.9 µM (inactive) in assay [9]; 41.6 µM (inactive) in assay [10]; 51.1 µM (inactive) in assay [11]. For the same compound, the GI50 in assay [12] is 27 µM (inactive); in assay [13] it was 37.6 µM (inactive); in assay [14], 51.1 µM (inactive); in assay [15], 66.8 µM (inactive); in assay [16], 57 µM (inactive).

`CC1=NN(c2cccc(Cl)c2)C(=N/c2nc3ccccc3s2)/C1=C\C=C\c1ccccc1`: the GI50 in assay [1] is 33.5 µM (inactive); in [18] it was 13.8 µM (inactive); in assay [2], 50.4 µM (inactive); in assay [6], 24.7 µM (inactive); in assay [7], 9.23 µM (inactive); in assay [10], 46.5 µM (inactive). In addition, the GI50 in assay [11] was 28.4 µM (inactive); in assay [12], 20 µM (inactive); in [13], 42.3 µM (inactive); in [14], 35.8 µM (inactive); in assay [15], 34.9 µM (inactive); in [16], 34.6 µM (inactive).

`CC(=O)OCC1OC(NC(=S)CCSc2nc3ccccc3c(=O)n2-c2ccccc2)C(OC(C)=O)C(OC(C)=O)C1OC(C)=O` (configuration not stated): the GI50 was 32.5 µM (inactive) in [1]; 29.2 µM (inactive) in assay [18]; > 100 µM (inactive) in assay [2]; 40.9 µM (inactive) in [3]; 68.2 µM (inactive) in assay [4]; > 100 µM (inactive) in assay [5]. Also, the GI50 in [17] was 39.3 µM (inactive); in [7] it was 34.2 µM (inactive); in assay [8], 22.1 µM (inactive); in [9] it was 38.1 µM (inactive); in assay [10] it was 22.6 µM (inactive); in [11], 42 µM (inactive). For the same compound, the GI50 in assay [12] is 2.34 µM (inactive); in assay [13] it was 46.1 µM (inactive); in assay [14] it was > 100 µM (inactive); in [16], 46.9 µM (inactive).

Take `Cn1c(=O)oc2cc(C(=O)CN3CCN(Cc4ccc5c(c4)OCO5)CC3)c(Cl)cc21`: the GI50 in assay [1], in assay [18], in assay [2], in assay [3], in assay [4] and in [17] was > 100 µM (inactive) in each case. The GI50 in assay [7] was > 100 µM (inactive); in [8] it was > 100 µM (inactive); in [9], > 100 µM (inactive); in assay [10], > 100 µM (inactive); in [11] it was 94 µM (inactive); in [12], > 100 µM (inactive). Besides, the GI50 in assay [14] and in assay [16] was > 100 µM (inactive) throughout.

Take `O=c1c2c3ccccc3[nH]c2c2cccc3c2n1CCC3`: the GI50 in [1] was 37.7 µM (inactive); in [2], > 100 µM (inactive); in [3], 26.8 µM (inactive); in assay [4], 53.1 µM (inactive); in assay [5] it was 48.1 µM (inactive); in [6], 20.7 µM (inactive). In addition, the GI50 in [17] is 29.2 µM (inactive); in assay [7], 32.3 µM (inactive); in assay [9], 36.1 µM (inactive); in assay [10] it was 66.7 µM (inactive); in [11] it was > 10 µM (inactive); in assay [12], 84.5 µM (inactive). In addition, the GI50 in assay [13] is 60.5 µM (inactive); in assay [14], 33 µM (inactive); in [15], 68.9 µM (inactive); in [16], 83.6 µM (inactive).

`Cn1c(=O)n2n(c1=O)[C@@H](c1ccccc1)[C@H]2c1ccccc1`: the GI50 in assay [1] was > 100 µM (inactive); in assay [18], 20.6 µM (inactive); in [3], > 100 µM (inactive); in assay [4], > 100 µM (inactive); in assay [5], > 100 µM (inactive); in [6] it was > 100 µM (inactive). Also, the GI50 in assay [17] was > 100 µM (inactive); in [7], 64.3 µM (inactive); in [8] it was > 100 µM (inactive); in assay [9] it was > 100 µM (inactive); in assay [10], > 100 µM (inactive); in assay [11], > 100 µM (inactive). Moreover, the GI50 in [12], in assay [13], in assay [15] and in assay [16] was > 100 µM (inactive) in each case.

Consider `Cc1cccc(/C=N/NC(=S)Nc2ccccc2)n1`, for which the GI50 was 6.3 µM (inactive) in assay [1]; 4.18 µM (inactive) in assay [2]; 6 µM (inactive) in assay [3]; 2.8 µM (inactive) in [4]; 5.61 µM (inactive) in assay [5]; 15.3 µM (inactive) in [6]. Also, the GI50 in assay [17] is 5.64 µM (inactive); in assay [7] it was 4.1 µM (inactive); in [8], 3.2 µM (inactive); in [9] it was 4.32 µM (inactive); in assay [10], 5.85 µM (inactive); in assay [11], 3.43 µM (inactive). The GI50 in assay [12] is 2.84 µM (inactive); in [13], 2.49 µM (inactive); in assay [14], 3.31 µM (inactive); in assay [15], 2.43 µM (inactive); in [16], 9.53 µM (inactive).

In the case of `O=C(c1ccco1)N(C(=O)N1CCCCC1)c1ccccc1`, the GI50 in assay [18], in [2], in assay [3], in assay [4], in [6] and in assay [7] was > 100 µM (inactive) throughout. For the same compound, the GI50 in assay [8], in assay [9], in assay [10], in assay [11], in assay [12] and in assay [13] was > 100 µM (inactive) in each case. Further, the GI50 in assay [14], in [15] and in [16] was > 100 µM (inactive) in each case.

`O=C(O)CCCC(=O)Nn1c(Cc2ccc(Cl)cc2)n[nH]c1=O`: the GI50 in assay [1] was > 100 µM (inactive); in [18], 26.9 µM (inactive); in assay [2], > 100 µM (inactive); in [3], > 100 µM (inactive); in assay [4], > 100 µM (inactive); in assay [5] it was > 100 µM (inactive). Moreover, the GI50 in [6] was 71.6 µM (inactive); in assay [7], > 100 µM (inactive); in assay [8], > 100 µM (inactive); in assay [9] it was > 100 µM (inactive); in assay [10], > 100 µM (inactive); in assay [11], 14.9 µM (inactive). The GI50 in [12], in [13], in assay [14], in [15] and in assay [16] was > 100 µM (inactive) throughout.

With `COc1cccc(C2c3cc4c(cc3OC(N3CCCC3)C2c2ccccc2)OCO4)c1O` (configuration not stated), the GI50 was 3.74 µM (inactive) in assay [1]; 11.9 µM (inactive) in assay [2]; 8.28 µM (inactive) in assay [3]; 12.7 µM (inactive) in assay [4]; 11.6 µM (inactive) in assay [5]; 11 µM (inactive) in assay [17]. Also, the GI50 was 5.35 µM (inactive) in assay [7]; 12.1 µM (inactive) in [8]; 25.2 µM (inactive) in assay [10]; 3.46 µM (inactive) in assay [11]; 7.59 µM (inactive) in assay [12]; 11 µM (inactive) in assay [13]. For the same compound, the GI50 in assay [14] was 9.02 µM (inactive); in assay [15], 13.7 µM (inactive).
